Among the data in patent US11384078B2, “5,6-fused-bicyclic compounds and compositions for the treatment of parasitic diseases” (NOVARTIS AG, priority 2017, dated 2022) are EC50 values, retold here.

Holding throughout (format): cell-based
The subject of test [1] is Leishmania donovani axenic amastigote. Briefly: In vitro assay for growth inhibition of Leishmania donovani axenic amastigote (Cell TiterGlo luminescence). As to conditions: Leishmania donovani, L. donovani axenic amastigotes in vitro; read-out: L. donovani amastigotes EC50. The gist of the method: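 Compound-treated wells received 9600 axenic amastigotes in RPMI 1640-based medium at pH 5.5 (37 °C, 5% CO2). Growth measured as ATP luminescence (CellTiter-Glo) after 2-day incubation; DMSO and reference compounds served as controls.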
(Cellular ATP, detected with luciferase, serves as a proxy for viable cell number.)

Test [2] concerns L. donovani HU3 strain in mouse peritoneal macrophages. The experiment in a line: Assay for inhibition of parasitemia of Leishmania donovani in mouse macrophages (SYBR Green nuclei count, high-content imaging). Conditions: Leishmania donovani, Peritoneal macrophage, read-out: L. donovani in Mouse Macrophages EC50. The gist of the method: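 Parasite numbers were counted from SYBR Green-stained nuclei imaged by high-content microscopy after paraformaldehyde fixation and Triton permeabilization. Before this, compound was applied for 5 days at 37° C to BALB/c peritoneal macrophages (2×10^4/well) that had been exposed 24 h to 4×10^5 L. donovani HU3 amastigotes harvested from infected mouse spleens.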

Test [3] deals with Trypanosoma cruzi amastigotes cultured in 3T3 fibroblast cells. Briefly: Assay for growth inhibition of kinetoplastid parasite Trypanosoma cruzi (beta-galactosidase Tulahuen strain, CPRG readout). As to conditions: Trypanosoma cruzi, T. cruzi amastigotes in 3T3 fibroblast cells, read-out: Buckner infectious T. cruzi EC50. The gist of the method: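 3T3 fibroblasts (1,000 cells/well) plated overnight, treated with compound in DMSO, then infected with 10,000 Lac-Z-expressing Tulahuen trypomastigotes. After 6 days, 0.6 mM CPRG with 0.6% NP-40 added for 2 h at room temperature; absorbance gives relative intracellular amastigote numbers. Benznidazole and nifurtimox serve as positive controls.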

The subject of test [4] is Trypanosoma brucei brucei (Lister 427) strain. The experiment in a line: Assay for growth inhibition against Trypanosoma brucei brucei (Cell TiterGlo ATP luminescence). Conditions: T. brucei brucei (Lister 427), read-out: T. Brucei (HAT) EC50. The gist of the method: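 Growth read-out is cellular ATP by CellTiter-Glo luminescence, measured 30 min after reagent addition, following 2-day incubation at 37 °C in CO2. Parasites (10,000/mL, HMI-9 plus 10% FBS and 10% serum plus) faced 10 threefold dilutions in duplicate; IC50 taken as 50% growth inhibition versus untreated.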

Setting [5] is: L. donovani in mouse peritoneal macrophages.

Like-named read-outs stand apart in the source and are kept apart here. Where only a bound is given, the exact number is not on record here.

For `O=C(Nc1ccc(F)c(-n2cc3cc(N4CCC45COC5)cnc3n2)c1)N1CC(F)C1` [Compound 231, 3-fluoro-N-{4-fluoro-3-(5-{6-oxa-1-azaspiro[3.3]heptan-1-yl}-2H-pyrazolo[3,4-b]pyridin-2-yl)phenyl}azetidine-1-carboxamide], the EC50 (usually the concentration needed to bring the measured effect to its halfway point) in test [1] worked out at 34 nM; in test [2] (setting [5]), 113 nM; in test [3] (Fibroblast) it was 126 nM; in test [4], 6 nM.

On to `O=C(Nc1ccc(F)c(-n2cc3cc(N4CCC4)cnc3n2)c1)N1CCC1` [Compound 10, N-(3-(5-(azetidin-1-yl)-2H-pyrazolo[3,4-b]pyridin-2-yl)-4-fluorophenyl)azetidine-1-carboxamide], for which the concentration giving a half-maximal response (EC50) in test [1] is 16 nM; in test [2] it was 7.8 nM; in test [3] it was 4.8 nM; in test [4] (Trypanosoma brucei), less than 23 nM.

On to `O=C(Nc1ccc(F)c(-n2cc3cc(N4CC5CC(C4)O5)cnc3n2)c1)N1CC(F)C1` [Compound 240, 3-fluoro-N-[4-fluoro-3-(5-{6-oxa-3-azabicyclo[3.1.1]heptan-3-yl}-2H-pyrazolo[3,4-b]pyridin-2-yl)phenyl}azetidine-1-carboxamide], for which the EC50 in test [1] turned out to be 579 nM; in test [2] (setting [5]), 27 nM; in test [3] (Fibroblast), 21 nM; in test [4] (Trypanosoma brucei) it was 5 nM.

Consider `CN(C)c1cnc2nn(-c3cc(NC(=O)N4CCC4)ccc3F)cc2c1` [Compound 170, N-{3-[5-(dimethylamino)-2H-pyrazolo[3,4-b]pyridin-2-yl]-4-fluorophenyl}azetidine-1-carboxamide], for which the 50% effective concentration (EC50) in test [1] is 8 nM; in test [2] (setting [5]) it was 11 nM; in test [3] (Fibroblast) it was 4.6 nM; in test [4] (Trypanosoma brucei) it was less than 23 nM.

For the compound `O=C(Nc1ccc(F)c(-n2cc3cc(-c4c[nH]cn4)cnc3n2)c1)N1CC(F)C1` [Compound 295, 3-fluoro-N-{4-fluoro-3-[5-(1H-imidazol-4-yl)-2H-pyrazolo[3,4-b]pyridin-2-yl]phenyl}azetidine-1-carboxamide], the EC50 was 292 nM in test [1], 1970 nM in test [2] (setting [5]), 4290 nM in test [3] (Fibroblast) and 38 nM in test [4] (Trypanosoma brucei).

For the compound `Cc1nc(C)c(C(=O)Nc2ccc(F)c(-n3cc4cc(CCC(C)C)cnc4n3)c2)o1` [Compound 107, N-{4-fluoro-3-[5-(3-methylbutyl)-2H-pyrazolo[3,4-b]pyridin-2-yl]phenyl}-2,4-dimethyl-1,3-oxazole-5-carboxamide], the EC50 in test [1] was found to be 220 nM; in test [2] (setting [5]), 130 nM; in test [3] (Fibroblast) it was 77 nM; in test [4] (Trypanosoma brucei), 88 nM.

Take `O=C(Nc1ccc(F)c(-n2cc3cc(N4C[C@@H]5C[C@H]4CO5)cnc3n2)c1)N1CC(F)C1` [Compound 172, 3-fluoro-N-(4-fluoro-3-{5-[(1S,4S)-2-oxa-5-azabicyclo[2.2.1]heptan-5-yl]-2H-pyrazolo[3,4-b]pyridin-2-yl]phenyl)azetidine-1-carboxamide]: the half-maximal effective concentration (EC50) is 6.7 nM in test [1], 11 nM in test [2] (setting [5]), 33 nM in test [3] (Fibroblast) and less than 23 nM in test [4] (Trypanosoma brucei).

For `O=C(Nc1ccc(F)c(-n2cc3cc(C4CCNCC4)cnc3n2)c1)N1CC(F)C1` [Compound 293, 3-fluoro-N-{4-fluoro-3-[5-(piperidin-4-yl)-2H-pyrazolo[3,4-b]pyridin-2-yl]phenyl}azetidine-1-carboxamide], the EC50 in test [1] was 6820 nM; in test [2] (setting [5]), 17600 nM; in test [3] (Fibroblast), 1210 nM; in test [4] (Trypanosoma brucei) it was 167 nM.

With `O=C(Nc1ccc(F)c(-n2cc3cc(N4CC5(CC5)C4)cnc3n2)c1)N1CC(F)(F)C1` [Compound 258, N-[3-(5-{5-azaspiro[2.3]hexan-5-yl}-2H-pyrazolo[3,4-b]pyridin-2-yl)-4-fluorophenyl}-3,3-difluoroazetidine-1-carboxamide], the EC50 in test [1] was 23 nM; in test [2] (setting [5]), 39 nM; in test [3] (Fibroblast), 12 nM; in test [4] (Trypanosoma brucei), 28 nM.

With `CC(C)(C)Cc1cnc2nn(-c3cc(NC(=O)N4CC(F)C4)ccc3F)cc2c1` [Compound 21, N-{3-[5-(2,2-dimethylpropyl)-2H-pyrazolo[3,4-b]pyridin-2-yl]-4-fluorophenyl}-3-fluoroazetidine-1-carboxamide], the EC50 in test [1] is 7.7 nM; in test [2] (setting [5]) it was 6.5 nM; in test [3] (Fibroblast) it was 1.7 nM; in test [4] (Trypanosoma brucei), less than 23 nM.

With `C[C@@H]1CN(c2cnc3nn(-c4cc(NC(=O)N5CC(F)C5)ccc4F)cc3c2)C[C@H](C)O1` [Compound 230, N-(3-{5-[(2R,6S)-2,6-dimethylmorpholin-4-yl]-2H-pyrazolo[3,4-b]pyridin-2-yl]-4-fluorophenyl)-3-fluoroazetidine-1-carboxamide], the EC50 in test [1] was 37 nM; in test [2] (setting [5]), 22 nM; in test [3] (Fibroblast) it was 47 nM; in test [4] it was 5 nM.

For `COC1CN(c2cnc3nn(-c4cc(NC(=O)N5CC(F)C5)ccc4F)cc3c2)C1` [Compound 205, 3-fluoro-N-{4-fluoro-3-[5-(3-methoxyazetidin-1-yl)-2H-pyrazolo[3,4-b]pyridin-2-yl]phenyl}azetidine-1-carboxamide], the EC50 in test [1] came to 197 nM; in test [2] (setting [5]) it was 11 nM; in test [3] (Fibroblast), 15 nM; in test [4] (Trypanosoma brucei) it was 5 nM.

Regarding `O=C(Nc1ccc(F)c(-n2cc3cc(-c4ccccn4)cnc3n2)c1)N1CCC1` [Compound 99, N-{4-fluoro-3-[5-(pyridin-2-yl)-2H-pyrazolo[3,4-b]pyridin-2-yl]phenyl}azetidine-1-carboxamide], the EC50 is 1.3 nM in test [1], 2 nM in test [2] (setting [5]), 1 nM in test [3] (Fibroblast) and greater than 50000 nM in test [4] (Trypanosoma brucei).

Turning to `O=C(Nc1ccc(F)c(-n2cc3cc(Br)cnc3n2)c1)c1ccco1` [Compound 130, N-(3-(5-bromo-2H-pyrazolo[3,4-b]pyridin-2-yl)-4-fluorophenyl)furan-2-carboxamide], the EC50 in test [1] stood at 190 nM; in test [2] (setting [5]) it was 160 nM; in test [3] (Fibroblast) it was 36 nM; in test [4] (Trypanosoma brucei), 40 nM.

Consider `O=C(Nc1ccc(Cl)c(-n2cc3cc(-c4ccccn4)cnc3n2)c1)N1CCC1` [Compound 285, N-{4-chloro-3-[5-(pyridin-2-yl)-2H-pyrazolo[3,4-b]pyridin-2-yl]phenyl}azetidine-1-carboxamide], for which the EC50 in test [1] was determined as 4 nM; in test [2] (setting [5]), 9 nM; in test [3] (Fibroblast), 3 nM; in test [4] (Trypanosoma brucei) it was 4 nM.

For the compound `CC(C)CCc1cnc2nn(-c3cc(NC(=O)N4CC(F)(F)C4)ccc3F)cc2c1` [Compound 38, 3,3-difluoro-N-{4-fluoro-3-[5-(3-methylbutyl)-2H-pyrazolo[3,4-b]pyridin-2-yl]phenyl}azetidine-1-carboxamide], the EC50 in test [1] was 31 nM; in test [2] (setting [5]), 33 nM; in test [3] (Fibroblast) it was 62 nM; in test [4] (Trypanosoma brucei), 24 nM.

Take `O=C(Nc1ccc(F)c(-n2cc3cc(N4CC5(CCOC5)C4)cnc3n2)c1)N1CC(F)C1` [Compound 202, 3-fluoro-N-[4-fluoro-3-(5-{6-oxa-2-azaspiro[3.4]octan-2-yl}-2H-pyrazolo[3,4-b]pyridin-2-yl)phenyl]azetidine-1-carboxamide]: the EC50 was 463 nM in test [1], 10 nM in test [2] (setting [5]), 25 nM in test [3] (Fibroblast) and 5 nM in test [4] (Trypanosoma brucei).

`Cc1nc(C)c(C(=O)Nc2ccc(F)c(-n3cc4cc(N(C)C)cnc4n3)c2)o1` [Compound 154, N-{3-[5-(dimethylamino)-2H-pyrazolo[3,4-b]pyridin-2-yl]-4-fluorophenyl}-2,4-dimethyl-1,3-oxazole-5-carboxamide]: the EC50 in test [1] stood at 53 nM; in test [2] (setting [5]), 78 nM; in test [3] (Fibroblast), 23 nM; in test [4] (Trypanosoma brucei), 37 nM.

Turning to `O=C(Nc1ccc(F)c(-n2cc3cc(CC(F)(F)F)cnc3n2)c1)N1CC(F)C1` [Compound 152, 3-fluoro-N-(4-fluoro-3-(5-(2,2,2-trifluoroethyl)-2H-pyrazolo[3,4-b]pyridin-2-yl)phenyl)azetidine-1-carboxamide], the EC50 in test [1] is 3.7 nM; in test [2] (setting [5]), 5.3 nM; in test [3] (Fibroblast), 1.7 nM; in test [4] (Trypanosoma brucei), less than 23 nM.

On to `Cc1nc(C(=O)Nc2ccc(F)c(-n3cc4cc(C(C)C)cnc4n3)c2)c(C(F)(F)F)o1` [Compound 68, N-{4-fluoro-3-[5-(propan-2-yl)-2H-pyrazolo[3,4-b]pyridin-2-yl]phenyl}-2-methyl-5-(trifluoromethyl)-1,3-oxazole-4-carboxamide], for which the EC50 in test [1] stood at 2200 nM; in test [2] (setting [5]), 2800 nM; in test [3] (Fibroblast), 160 nM; in test [4] (Trypanosoma brucei) it was 510 nM.

For the compound `O=C(Nc1cccc(-n2cc3cc(-c4ccccn4)cnc3n2)c1)N1CCC1` [Compound 344, N-{3-[5-(pyridin-2-yl)-2H-pyrazolo[3,4-b]pyridin-2-yl]phenyl}azetidine-1-carboxamide], the EC50 in test [1] worked out at 2 nM; in test [2] (setting [5]), 5 nM; in test [3] (Fibroblast), 3 nM; in test [4] (Trypanosoma brucei), 1 nM.
